Measurements taken from the supplement of paper PMC10307832.

Legend:
Test in all cases: relative viability (nuclei count vs DMSO), 5 days (fraction); higher = more cells survive
[1] = tested on: NCI-H441
Summary of the method: (§1)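 Cells from lung cancer lines were seeded into 1536-well plates and, one day later, dosed by pin tool. Treatments were either a single drug or a fixed dose of an anchor drug with five library-drug doses (not always all listed) in √10 steps. After 5 days, nuclei were stained in a one-step fixation (final 0.05% Triton X-100, 1% formaldehyde, 1 ug/ml Hoechst) and counted on 4× images, and relative viability is the treated-to-vehicle nuclei ratio, as the median of duplicate plates.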

[2] = tested on: NCI-H647
Summary of the method: as §1

[3] = tested on: NCI-H460
Summary of the method: as §1

[4] = tested on: NCI-H596
Summary of the method: as §1

[5] = tested on: PC-14
Summary of the method: as §1

[6] = tested on: NCI-H1437
Summary of the method: as §1

[7] = tested on: ABC-1
Summary of the method: as §1

[8] = tested on: NCI-H1755
Summary of the method: as §1

[9] = tested on: NCI-H23
Summary of the method: as §1

[10] = tested on: HCC-366
Summary of the method: as §1

[11] = tested on: NCI-H2023
Summary of the method: as §1

[12] = tested on: NCI-H3122
Summary of the method: as §1

[13] = tested on: NCI-H2009
Summary of the method: as §1

[14] = tested on: H3255
Summary of the method: as §1

[15] = tested on: UMC-11
Summary of the method: as §1

[16] = tested on: A-427
Summary of the method: as §1

[17] = tested on: PC-3 [JPC-3]
Summary of the method: as §1

[18] = tested on: NCI-H2347
Summary of the method: as §1

[19] = tested on: HCC-44
Summary of the method: as §1

[20] = tested on: NCI-H2405
Summary of the method: as §1

[21] = tested on: LCLC-103H
Summary of the method: as §1

[22] = tested on: LXF-289
Summary of the method: as §1

COCC1(CO)C(=O)C2CCN1CC2 (configuration not stated) [PRIMA-1MET] + CC(C)C[C@H](NC(=O)[C@H](Cc1ccccc1)NC(=O)c1cnccn1)B(O)O [Bortezomib] (partner 0.002 µM)
relative viability ([1]; first compound 0.2 µM): 0.387
relative viability ([1]; first compound 0.6325 µM): 0.407
relative viability ([1]; first compound 2 µM): 0.347
relative viability ([1]; first compound 6.325 µM): 0.404
relative viability ([1]; first compound 20 µM): 0.107
relative viability ([2]; first compound 0.2 µM): 1.19
relative viability ([2]; first compound 0.6325 µM): 1.06
relative viability ([2]; first compound 2 µM): 0.876
relative viability ([2]; first compound 6.325 µM): 1.17
relative viability ([2]; first compound 20 µM): 0.686
relative viability ([3]; first compound 0.2 µM): 1.38
relative viability ([3]; first compound 0.6325 µM): 0.967
relative viability ([3]; first compound 2 µM): 1.05
relative viability ([3]; first compound 6.325 µM): 0.581
relative viability ([3]; first compound 20 µM): 0.0059
relative viability ([4]; first compound 0.2 µM): 1.11
relative viability ([4]; first compound 0.6325 µM): 0.93
relative viability ([4]; first compound 2 µM): 0.803
relative viability ([4]; first compound 6.325 µM): 1.25
relative viability ([4]; first compound 20 µM): 0.195
relative viability ([5]; first compound 0.2 µM): 0.98
relative viability ([5]; first compound 0.6325 µM): 0.722
relative viability ([5]; first compound 2 µM): 0.856
relative viability ([5]; first compound 6.325 µM): 1.08
relative viability ([5]; first compound 20 µM): 0.884
relative viability ([6]; first compound 0.2 µM): 0.573
relative viability ([6]; first compound 0.6325 µM): 0.403
relative viability ([6]; first compound 2 µM): 0.538
relative viability ([6]; first compound 6.325 µM): 0.594
relative viability ([6]; first compound 20 µM): 0.432
relative viability ([7]; first compound 0.2 µM): 0.297
relative viability ([7]; first compound 0.6325 µM): 0.278
relative viability ([7]; first compound 2 µM): 0.256
relative viability ([7]; first compound 6.325 µM): 0.287
relative viability ([7]; first compound 20 µM): 0.276
relative viability ([8]; first compound 0.2 µM): 1.11
relative viability ([8]; first compound 0.6325 µM): 0.892
relative viability ([8]; first compound 2 µM): 0.877
relative viability ([8]; first compound 6.325 µM): 0.974
relative viability ([8]; first compound 20 µM): 0.975
relative viability ([9]; first compound 0.2 µM): 0.966
relative viability ([9]; first compound 0.6325 µM): 0.724
relative viability ([9]; first compound 2 µM): 0.944
relative viability ([9]; first compound 6.325 µM): 1.05
relative viability ([9]; first compound 20 µM): 0.116
relative viability ([10]; first compound 0.2 µM): 1.15
relative viability ([10]; first compound 0.6325 µM): 0.838
relative viability ([10]; first compound 6.325 µM): 1.01
relative viability ([10]; first compound 20 µM): 0.0138
relative viability ([11]; first compound 0.2 µM): 1.17
relative viability ([11]; first compound 0.6325 µM): 0.877
relative viability ([11]; first compound 2 µM): 0.893
relative viability ([11]; first compound 6.325 µM): 0.951
relative viability ([11]; first compound 20 µM): 1.02
relative viability ([12]; first compound 0.2 µM): 0.865
relative viability ([12]; first compound 0.6325 µM): 1.01
relative viability ([12]; first compound 2 µM): 0.955
relative viability ([12]; first compound 6.325 µM): 0.986
relative viability ([12]; first compound 20 µM): 0.999
relative viability ([13]; first compound 0.2 µM): 0.714
relative viability ([13]; first compound 0.6325 µM): 0.885
relative viability ([13]; first compound 2 µM): 0.779
relative viability ([13]; first compound 6.325 µM): 0.975
relative viability ([13]; first compound 20 µM): 0.0124
relative viability ([14]; first compound 0.2 µM): 0.814
relative viability ([14]; first compound 0.6325 µM): 0.461
relative viability ([14]; first compound 2 µM): 0.771
relative viability ([14]; first compound 6.325 µM): 0.815
relative viability ([14]; first compound 20 µM): 0.69
relative viability ([15]; first compound 0.2 µM): 0.778
relative viability ([15]; first compound 0.6325 µM): 0.407
relative viability ([15]; first compound 2 µM): 0.666
relative viability ([15]; first compound 6.325 µM): 0.771
relative viability ([15]; first compound 20 µM): 0.777
relative viability ([16]; first compound 0.2 µM): 1.09
relative viability ([16]; first compound 0.6325 µM): 0.881
relative viability ([16]; first compound 2 µM): 0.901
relative viability ([16]; first compound 6.325 µM): 0.839
relative viability ([16]; first compound 20 µM): 0.962
relative viability ([17]; first compound 0.2 µM): 0.958
relative viability ([17]; first compound 0.6325 µM): 0.688
relative viability ([17]; first compound 2 µM): 0.874
relative viability ([17]; first compound 6.325 µM): 0.858
relative viability ([17]; first compound 20 µM): 0.792
relative viability ([18]; first compound 0.2 µM): 1.33
relative viability ([18]; first compound 0.6325 µM): 1.11
relative viability ([18]; first compound 6.325 µM): 1.07
relative viability ([18]; first compound 20 µM): 0.847
relative viability ([19]; first compound 0.2 µM): 0.971
relative viability ([19]; first compound 0.6325 µM): 0.76
relative viability ([19]; first compound 2 µM): 0.927
relative viability ([19]; first compound 6.325 µM): 0.911
relative viability ([19]; first compound 20 µM): 0.877
relative viability ([20]; first compound 0.2 µM): 0.716
relative viability ([20]; first compound 0.6325 µM): 0.786
relative viability ([20]; first compound 6.325 µM): 0.92
relative viability ([20]; first compound 20 µM): 0.952
relative viability ([21]; first compound 0.2 µM): 1.35
relative viability ([21]; first compound 0.6325 µM): 1.03
relative viability ([21]; first compound 2 µM): 1.04
relative viability ([21]; first compound 6.325 µM): 0.934
relative viability ([21]; first compound 20 µM): 1
relative viability ([22]; first compound 0.2 µM): 0.999
relative viability ([22]; first compound 0.6325 µM): 0.976
relative viability ([22]; first compound 2 µM): 1.12
relative viability ([22]; first compound 6.325 µM): 1
relative viability ([22]; first compound 20 µM): 0.872
